Reference: BindingDB's records for doi:10.1021/jm020112w (Bristol-Myers Squibb, 2002)

target: Dihydroorotate dehydrogenase (Helicobacter pylori); assay: Inhibition of dihydroorotate dehydrogenase (DHODase) of Helicobacter pylori

Row | SMILES | Ki [nM]
1 | CC(C)CNC(=O)c1cc(C(=O)NCc2ccccc2)nn1-c1ccc(Cl)cc1 [1-(4-Chloro-phenyl)-1H-pyrazole-3,5-dicarboxylic acid 3-benzylamide 5-(isobutyl-amide)] | 91
2 | COc1ccc(-n2nc(C(=O)NCc3ccccc3)cc2C(=O)Nc2ccc(C(=O)N3CCCC3)cc2)cc1 [1-(4-Methoxy-phenyl)-1H-pyrazole-3,5-dicarboxylic acid 3-benzylamide 5-{[4-(pyrrolidine-1-carbonyl)-phenyl]-amide}] | 26
3 | O=C(NCc1cccnc1)c1cc(C(=O)Nc2ccc(N3CCCCC3)cc2)n(-c2ccc(Cl)cc2)n1 [1-(4-Chloro-phenyl)-1H-pyrazole-3,5-dicarboxylic acid 5-[(4-piperidin-1-yl-phenyl)-amide] 3-[(pyridin-3-ylmethyl)-amide]] | 8
4 | COc1ccc(-n2nc(C(=O)NCc3cccnc3)cc2C(=O)Nc2ccccc2)cc1 [1-(4-Methoxy-phenyl)-1H-pyrazole-3,5-dicarboxylic acid 5-phenylamide 3-[(pyridin-3-ylmethyl)-amide]] | 12
5 | O=C(NCc1ccccc1)c1cc(C(=O)Nc2ccccc2)n(-c2ccc(Cl)cc2)n1 [X1-(4-Chloro-phenyl)-1H-pyrazole-3,5-dicarboxylic acid 3-benzylamide 5-phenylamide] | 4
6 | Cc1ccc(CNC(=O)c2cc(C(=O)Nc3ccccc3)n(-c3ccc(Cl)cc3)n2)cc1 [1-(4-Chloro-phenyl)-1H-pyrazole-3,5-dicarboxylic acid 3-(4-methyl-benzylamide) 5-phenylamide] | 32
7 | COc1ccc(-n2nc(C(=O)NC(c3ccccc3)c3ccccc3)cc2C(=O)NCc2ccccc2)cc1 [1-(4-Methoxy-phenyl)-1H-pyrazole-3,5-dicarboxylic acid 3-benzhydryl-amide 5-benzylamide] | 2400
8 | NC(=O)c1ccc(NC(=O)c2cc(C(=O)NCc3ccccc3)nn2-c2ccc(Cl)cc2)cc1 [1-(4-Chloro-phenyl)-1H-pyrazole-3,5-dicarboxylic acid 3-benzylamide 5-[(4-carbamoyl-phenyl)-amide]] | 6
9 | COc1ccc(-n2nc(C(=O)NCC(C)C)cc2C(=O)Nc2ccc(C(=O)N3CCCC3)cc2)cc1 [1-(4-Methoxy-phenyl)-1H-pyrazole-3,5-dicarboxylic acid 3-(isobutyl-amide) 5-{[4-(pyrrolidine-1-carbonyl)-phenyl]-amide}] | 138
10 | O=C(NCc1cccnc1)c1cc(C(=O)Nc2ccccc2)n(-c2ccc(Cl)cc2)n1 [1-(4-Chloro-phenyl)-1H-pyrazole-3,5-dicarboxylic acid 5-phenylamide 3-[(pyridin-3-ylmethyl)-amide]] | 4
11 | COc1ccc(-n2nc(C(=O)NCC3CCCO3)cc2C(=O)Nc2ccc(C(=O)N3CCCC3)cc2)cc1 (stereo unspecified) [1-(4-Methoxy-phenyl)-1H-pyrazole-3,5-dicarboxylic acid 5-{[4-(pyrrolidine-1-carbonyl)-phenyl]-amide} 3-[(tetrahydro-furan-2-ylmethyl)-amide]] | 331
